Results as given in patent US20120035247A1, “RNA Interference Mediated Inhibition of Signal Transducer and Activator of Transcription 6 (STAT6) Gene Expression Using Short Interfering Nucleic Acid (siNA)” (Merck Sharp & Dohme Corp., priority 2009, published 2012).
[invAb] = inverted abasic unit; m = 2'-O-methyl; r = 2'-OH (RNA); f = 2'-fluoro

Legend:
eosinophilia and AHR = conditions: rat model of allergic disease; cited from earlier work
mouse spleen T cells = conditions: in vitro; cited from earlier work
STAT6 mRNA [1] = assay: STAT6 siNA screen in mouse NIH 3T3 cells, STAT6 mRNA by quantitative RT-PCR (Taqman); type: cell-based; conditions: mouse NIH3T3 cells, 10 nM siNA, 24 hrs, normalized to GAPDH and non-targeting control, n = 2
Procedure, shortened: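 NIH 3T3 cells, 5000/well, transfected after 24 h with siNA (10 nM final) via RNAiMax and harvested 24 h later. STAT6 mRNA quantified by TaqMan RT-qPCR with GAPDH; knock-down by comparative Ct (2^−ΔΔCt) against non-targeting control siNA.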

[2] = system: human STAT4 mRNA transcript; assay: STAT4 specificity screen in human A549 cells, STAT4 mRNA by quantitative RT-PCR; type: cell-based; conditions: three experiments, mean ± standard deviation
Experimental: A549 (human; ATCC cat# CCL-185): Cells were cultured at 37° C. in the presence of 5% CO2 and grown in Ham's F12K medium with 2 mM L-glutamine adjusted to contain 1.5 g/L sodium bicarbonate and supplemented with fetal bovine serum at a final concentration of 10%, 100 μg/mL of streptomycin, and 100 U/mL penicillin.
A series of probes and primers were used to detect the various mRNA transcripts of the genes of 13-Actin (human cell line only), and of STATE and GAPDH in mouse and human cell lines. All Taqman probes and primers for the experiments here-in described were supplied as pre-validated sets by Applied Biosystems, Inc. (see Table 2).
The assays were performed on an ABI 7900 instrument, according to the manufacturer's instructions. A TaqMan Gene Expression Master Mix (provided in the Cells-to-CTT™, Applied Biosystems, Cat #4399002) was used. The PCR reactions were carried out at 50° C. for 2 min, 95° C. for 20 min followed by 40 cycles at 95° C. for 15 secs and 60° C. for 1 min.
The expression level of the gene of interest and % knock-down was calculated using Comparative Ct method:
ΔΔCt=ΔCt(Target siNA)−ΔCt(NTC)
Relative expression level=2^−ΔΔCt
The non-targeting control siNA was, unless otherwise indicated, chosen as the value against which to calculate the % knock-down, because it is the most relevant control.
The siNAs from Table 4 were tested in human A549 cell line at a lower concentration (1 nM versus the original screening concentration of 10 nM) to determine the effect of the STATE siRNAs on the mRNA transcript of human STAT4.

STAT6 mRNA [3] = assay: STAT6 siNA screen and dose response in human A549 cells, STAT6 mRNA by quantitative RT-PCR (Taqman); type: cell-based
Procedure, shortened: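 A549 cells were transfected with siNA–RNAiMax complexes at a final 10 nM siNA and incubated 24 h without a medium change. STAT6 mRNA was measured by TaqMan qRT-PCR on cell lysates. Knock-down was calculated by the comparative Ct (ΔΔCt) method against the non-targeting control siNA, with relative expression taken as 2^−ΔΔCt.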

## NC(=O)c1cnc(Nc2ccc(N3CCOCC3)cc2)nc1NCc1c(F)ccc(F)c1F [YM341619]
Eosinophilia and AHR
  AHR: inhibited
  eosinophilia: inhibited
Mouse spleen T cells
  differentiation of mouse spleen T cells into the Th2 phenotype: inhibited

## 29999-DC: STAT6 siNA duplex; sense SEQ ID NO: 62, antisense SEQ ID NO: 63; target GUUCGAUUCCUGUUGGGCU, site 1148 (sense GUUCGAUUCCUGUUGGGCUTT; antisense AGCCCAACAGGAAUCGAACUU; sense: DNA at AGT, 2'-fluoro at CU, [invAb] at 5' end, 3' end, backbone not given here; antisense: sugars from the 5' end rrrffmmfmmmmmffmmmfmm, backbone not given here) [STAT6 siNA duplex; target GUUCGAUUCCUGUUGGGCU, site 1148]
STAT6 mRNA [1]
  % KD STAT6: 53.4 ± 3.1%
[2]
  % KD STAT4 1 nM: −17.4 ± 20.9%
STAT6 mRNA [3]; Table 4, human A549 cells, 10 nM, mean ± S.D.
  % KD STAT6 mRNA 10 nM: 72.8 ± 1^ %
STAT6 mRNA [3]; Table 4, human A549 cells, mean ± S.D.
  IC50: 48.7 ± 21.7 pM
STAT6 mRNA [3]; Table 5, A549 cells, 10 nM, three experiments, mean ± standard deviation
  % KD STAT6 10 nM: 72.8 ± 1.0%
STAT6 mRNA [3]; human A549 cells, 10 nM siNA, 24 hrs, normalized to GAPDH and non-targeting control, mean ± S.D., n = 3
  % KD STAT6: 72.8 ± 1%
